Results on 4 cell lines are retold here after the supplement of paper PMC10307832.

Common to all, as to assay: relative viability (nuclei count vs DMSO), 5 days (fraction); higher = more cells survive
Compound in the assay “AGI-6780 + Luminespib”: O=C(Nc1cccc(C(F)(F)F)c1)Nc1cc(S(=O)(=O)NC2CC2)ccc1-c1ccsc1 [AGI-6780] + CCNC(=O)c1noc(-c2cc(C(C)C)c(O)cc2O)c1-c1ccc(CN2CCOCC2)cc1 [Luminespib] (partner 0.01 µM)
In short, it runs like this:
(§1)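 After 5 days of treatment, lung cancer cells in 1536-well plates were fixed and stained in a single step (final 0.05% Triton X-100, 1% formaldehyde, 1 ug/ml Hoechst) and their nuclei counted on 4× images. Treatment had been applied by pin tool the day after seeding as one drug alone or as a fixed anchor-drug dose with five library-drug doses (not always all listed) in √10 steps. Relative viability is the nuclei count of treated wells divided by that of vehicle wells, and values are medians of duplicate plates.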

Compound in the assay “AGI-6780 + Lapatinib”: O=C(Nc1cccc(C(F)(F)F)c1)Nc1cc(S(=O)(=O)NC2CC2)ccc1-c1ccsc1 [AGI-6780] + CS(=O)(=O)CCNCc1ccc(-c2ccc3ncnc(Nc4ccc(OCc5cccc(F)c5)c(Cl)c4)c3c2)o1 [Lapatinib] (partner 2 µM)
In short, it runs like this: as §1

Compound in the assay “AGI-6780 + Decitabine”: O=C(Nc1cccc(C(F)(F)F)c1)Nc1cc(S(=O)(=O)NC2CC2)ccc1-c1ccsc1 [AGI-6780] + Nc1ncn([C@H]2C[C@H](O)[C@@H](CO)O2)c(=O)n1 [Decitabine] (partner 2 µM)
In outline:
as §1

Compound in the assay “AGI-6780 + Olaparib”: O=C(Nc1cccc(C(F)(F)F)c1)Nc1cc(S(=O)(=O)NC2CC2)ccc1-c1ccsc1 [AGI-6780] + O=C(c1cc(Cc2n[nH]c(=O)c3ccccc23)ccc1F)N1CCN(C(=O)C2CC2)CC1 [Olaparib] (partner 8 µM)
In short, it runs like this: as §1

Regarding LCLC-97TM1, the relative viability in the assay with AGI-6780 + Luminespib (first compound 0.08 µM) was found to be 0.814; with AGI-6780 + Luminespib (first compound 0.253 µM), 0.703; in the assay with AGI-6780 + Luminespib (first compound 0.8 µM) it was 0.876; with AGI-6780 + Luminespib (first compound 2.53 µM), 0.71; with AGI-6780 + Luminespib (first compound 8 µM), 0.714; in the assay with AGI-6780 + Lapatinib (first compound 0.08 µM), 0.803. The relative viability was determined as 1.61 in the assay with AGI-6780 + Lapatinib (first compound 0.253 µM); 1.14 in the assay with AGI-6780 + Lapatinib (first compound 0.8 µM); 1 with AGI-6780 + Lapatinib (first compound 8 µM); 0.221 in the assay with AGI-6780 + Decitabine (first compound 0.08 µM); 0.219 in the assay with AGI-6780 + Decitabine (first compound 0.253 µM); 0.304 in the assay with AGI-6780 + Decitabine (first compound 0.8 µM). The relative viability stood at 0.19 in the assay with AGI-6780 + Decitabine (first compound 2.53 µM); 0.231 in the assay with AGI-6780 + Decitabine (first compound 8 µM); 0.41 with AGI-6780 + Olaparib (first compound 0.08 µM); 0.532 in the assay with AGI-6780 + Olaparib (first compound 0.253 µM); 0.394 with AGI-6780 + Olaparib (first compound 0.8 µM); 0.264 in the assay with AGI-6780 + Olaparib (first compound 2.53 µM). Moreover, in the assay with AGI-6780 + Olaparib (first compound 8 µM), the relative viability was 0.378.

In the case of NCI-H1755, the relative viability with AGI-6780 + Luminespib (first compound 0.08 µM) turned out to be 0.37; with AGI-6780 + Luminespib (first compound 0.253 µM), 0.49; with AGI-6780 + Luminespib (first compound 0.8 µM) it was 0.518; in the assay with AGI-6780 + Luminespib (first compound 2.53 µM), 0.304; in the assay with AGI-6780 + Luminespib (first compound 8 µM) it was 0.42; in the assay with AGI-6780 + Lapatinib (first compound 0.08 µM), 1.03. In addition, the relative viability was 0.959 in the assay with AGI-6780 + Lapatinib (first compound 0.253 µM); 0.984 with AGI-6780 + Lapatinib (first compound 0.8 µM); 0.936 with AGI-6780 + Lapatinib (first compound 2.53 µM); 1.04 with AGI-6780 + Lapatinib (first compound 8 µM); 0.718 with AGI-6780 + Decitabine (first compound 0.08 µM); 0.758 with AGI-6780 + Decitabine (first compound 0.253 µM). The relative viability turned out to be 0.691 with AGI-6780 + Decitabine (first compound 0.8 µM); 0.604 with AGI-6780 + Decitabine (first compound 2.53 µM); 0.689 with AGI-6780 + Decitabine (first compound 8 µM); 0.912 with AGI-6780 + Olaparib (first compound 0.08 µM); 0.868 with AGI-6780 + Olaparib (first compound 0.253 µM); 0.852 in the assay with AGI-6780 + Olaparib (first compound 0.8 µM). Also, the figures for the relative viability with AGI-6780 + Olaparib (first compound 2.53 µM) and in the assay with AGI-6780 + Olaparib (first compound 8 µM) were 0.766 and 0.83, respectively.

Consider H3255, for which the relative viability with AGI-6780 + Luminespib (first compound 0.08 µM) turned out to be 0.808; with AGI-6780 + Luminespib (first compound 0.253 µM), 0.925; in the assay with AGI-6780 + Luminespib (first compound 0.8 µM), 0.905; with AGI-6780 + Luminespib (first compound 2.53 µM), 0.852; with AGI-6780 + Luminespib (first compound 8 µM), 0.949; in the assay with AGI-6780 + Lapatinib (first compound 0.08 µM) it was 0.222. Further, the relative viability in the assay with AGI-6780 + Lapatinib (first compound 0.253 µM) turned out to be 0.275; with AGI-6780 + Lapatinib (first compound 0.8 µM), 0.248; with AGI-6780 + Lapatinib (first compound 2.53 µM), 0.204; with AGI-6780 + Lapatinib (first compound 8 µM), 0.263; with AGI-6780 + Decitabine (first compound 0.08 µM), 0.54; with AGI-6780 + Decitabine (first compound 0.253 µM) it was 0.612. The relative viability stood at 0.719 in the assay with AGI-6780 + Decitabine (first compound 0.8 µM); 0.542 in the assay with AGI-6780 + Decitabine (first compound 8 µM); 0.505 with AGI-6780 + Olaparib (first compound 0.08 µM); 0.526 with AGI-6780 + Olaparib (first compound 0.253 µM); 0.607 in the assay with AGI-6780 + Olaparib (first compound 0.8 µM); 0.566 with AGI-6780 + Olaparib (first compound 2.53 µM). The relative viability with AGI-6780 + Olaparib (first compound 8 µM) was found to be 0.632.

Take NCI-H2085: the relative viability was determined as 0.409 with AGI-6780 + Luminespib (first compound 0.08 µM); 0.457 with AGI-6780 + Luminespib (first compound 0.253 µM); 0.482 in the assay with AGI-6780 + Luminespib (first compound 0.8 µM); 0.347 with AGI-6780 + Luminespib (first compound 2.53 µM); 0.39 with AGI-6780 + Luminespib (first compound 8 µM); 0.787 with AGI-6780 + Lapatinib (first compound 0.08 µM). In addition, the relative viability stood at 0.771 in the assay with AGI-6780 + Lapatinib (first compound 0.253 µM); 0.843 with AGI-6780 + Lapatinib (first compound 0.8 µM); 0.724 with AGI-6780 + Lapatinib (first compound 2.53 µM); 0.78 with AGI-6780 + Lapatinib (first compound 8 µM); 0.574 with AGI-6780 + Decitabine (first compound 0.08 µM); 0.534 in the assay with AGI-6780 + Decitabine (first compound 0.253 µM). The relative viability came to 0.523 with AGI-6780 + Decitabine (first compound 0.8 µM); 0.474 in the assay with AGI-6780 + Decitabine (first compound 2.53 µM); 0.537 with AGI-6780 + Decitabine (first compound 8 µM); 0.823 with AGI-6780 + Olaparib (first compound 0.08 µM); 0.739 in the assay with AGI-6780 + Olaparib (first compound 0.253 µM); 0.738 with AGI-6780 + Olaparib (first compound 0.8 µM). Moreover, the relative viability with AGI-6780 + Olaparib (first compound 2.53 µM) turned out to be 0.849; in the assay with AGI-6780 + Olaparib (first compound 8 µM) it was 0.761.
